Results published in US11141410B2 (MERCK SHARP & DOHME CORP., priority 2015, dated 2021).

Legend:
MRSA COL (MB5393) [1] = assay: TarO Inhibitor/β-Lactam Synergy Assay (growth, OD600); format: cell-based, Staphylococcus aureus; details: for MITC95 TarO inhibitor + 4 μg/mL IPM; Bacteria: SA_MB5393: in combination with 4 μg/mL imipenem (IPM); for MITC95 TarO inhibitor + 8 μg/mL DCX; Bacteria: SA_MB5393: in combination with 8 μg/mL dicloxacillin (DCX)
In short: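 TarO inhibitors titrated 2-fold from 200 μM (2% DMSO) against MRSA COL, 5×10^5 CFU in CAMHB, with β-lactam fixed at clinical breakpoint (imipenem 4 μg/ml or dicloxacillin 8 μg/ml). Incubated 20 h at 37 °C without shaking; relative growth read as OD600.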

MRSA COL (MB5393) [2] = assay: as above; format: cell-based; details: Staphylococcus aureus, TarO inhibitor alone, >200 μM = 95% growth inhibition not achieved, 20 hours at 37° C., read-out: MITC95 TarO inhibitor alone, Bacteria: SA_MB5393

| Structure (SMILES) | MITC95 TarO inhibitor + 4 μg/mL IPM; Bacteria: SA_MB5393 (MRSA COL (MB5393) [1]) [µM] | IC95 (MRSA COL (MB5393) [2]) [µM] | MITC95 TarO inhibitor + 8 μg/mL DCX; Bacteria: SA_MB5393 (MRSA COL (MB5393) [1]) [µM] |
| --- | --- | --- | --- |
| C[C@H]1[C@@H](c2ccc(F)c(F)c2)OC(=O)N1C(=O)CCc1cncc2ccccc12 [Example 82, (4S,5R)-5-(3,4-difluorophenyl)-3-(3-isoquinolin-4-ylpropanoyl)-4-methyl-1,3-oxazolidin-2-one] | 9.38 | > 200 | – |
| COc1ccccc1CNC(=O)N1C(=O)O[C@H](c2cc(F)cc(C(F)(F)F)c2)[C@@H]1C [Example 8, (4S,5R)-5-[3-fluoro-5-(trifluoromethyl)phenyl]-N-(2-methoxybenzyl)-4-methyl-2-oxo-1,3-oxazolidine-3-carboxamide] | 0.13 | > 200 | 1.32 |
| COc1ccccc1CNC(=O)N1C(=O)O[C@H](c2cccc(C(F)(F)F)c2)[C@@H]1C [Example 24, (4S,5R)-N-(2-methoxybenzyl)-4-methyl-2-oxo-5-[3-(trifluoromethyl)phenyl]-1,3-oxazolidine-3-carboxamide] | 0.20 | > 200 | 7.29 |
| C[C@H]1[C@@H](c2cc(F)cc(C(F)(F)F)c2)OC(=O)N1C(=O)NCc1cncc2ccccc12 [Example 48, (4S,5R)-5-[3-fluoro-5-(trifluoromethyl)phenyl]-N-(isoquinolin-4-ylmethyl)-4-methyl-2-oxo-1,3-oxazolidine-3-carboxamide] | 0.13 | > 200 | 0.39 |
| Cc1nn(C)c(C)c1CNC(=O)N1C(=O)O[C@H](c2cc(F)cc(C(F)(F)F)c2)[C@@H]1C [Example 29, (4S,5R)-5-[3-fluoro-5-(trifluoromethyl)phenyl]-4-methyl-2-oxo-N-[(1,3,5-trimethyl-1H-pyrazol-4-yl)methyl]-1,3-oxazolidine-3-carboxamide] | 0.78 | > 200 | 5.21 |
| C[C@H]1[C@@H](c2cc(F)cc(C(F)(F)F)c2)OC(=O)N1C(=O)NCc1cccc2c1C(=O)NC2 [Example 40] | 18.75 | > 200 | 50 |
| C[C@H]1[C@@H](c2cccc(Br)n2)OC(=O)N1C(=O)CCc1cccc2ccccc12 [Example 84, (4S,5S)-5-(6-bromopyridin-2-yl)-4-methyl-3-(3-naphthalen-1-ylpropanoyl)-1,3-oxazolidin-2-one] | 1.56 | > 200 | 100 |
| C[C@H]1[C@@H](c2cc(C(F)(F)F)cc(C(F)(F)F)c2)OC(=O)N1C(=O)CCc1cccc2ncccc12 [Example 73, (4S,5R)-5-[3,5-bis(trifluoromethyl)phenyl]-4-methyl-3-(3-quinolin-5-ylpropanoyl)-1,3-oxazolidin-2-one] | 0.56 | > 200 | 6.25 |
| C[C@H]1[C@@H](c2cc(C(F)(F)F)ccn2)OC(=O)N1C(=O)CCc1cncc2ccccc12 [Example 89, (4S,5S)-3-(3-(isoquinolin-4-yl)propanoyl)-4-methyl-5-(4-(trifluoromethyl)pyridin-2-yl)oxazolidin-2-one] | 6.25 | > 200 | 75 |
| C[C@H]1[C@@H](c2cc(C(F)(F)F)cc(C(F)(F)F)c2)OC(=O)N1C(=O)COc1cccc2ccccc12 [Example 91, (4S,5R)-5-[3,5-bis(trifluoro-methyl)phenyl]-4-methyl-3-[(naphthalen-1-yloxy)acetyl]-1,3-oxazolidin-2-one] | 0.76 | > 200 | 4.69 |
| Cc1nc(C(C)C)sc1CNC(=O)N1C(=O)O[C@H](c2cc(F)cc(C(F)(F)F)c2)[C@@H]1C [Example 20, (4S,5R)-5-[3-fluoro-5-(trifluoromethyl)phenyl]-4-methyl-N-{[4-methyl-2-(1-methylethyl)-1,3-thiazol-5-yl]methyl}-2-oxo-1,3-oxazolidine-3-carboxamide] | 0.43 | > 200 | 3.65 |
| C[C@H]1[C@@H](c2cc(F)cc(C(F)(F)F)c2)OC(=O)N1C(=O)NCc1ccnc2ccccc12 [Example 23, (4S,5R)-5-[3-fluoro-5-(trifluoromethyl)phenyl]-4-methyl-2-oxo-N-(quinolin-4-ylmethyl)-1,3-oxazolidine-3-carboxamide] | 0.61 | > 200 | 4.84 |
